Data taken from patent US10993957B2 (NuCana plc, priority 2011, dated 2021).
Like-named read-outs stand apart in the source and are kept apart here.

Legend:
Cem/hEnt-0 = experiment: Cytostatic assay, CEM cells lacking the hEnt1 transporter; type: cell-based; settings: read-out: IC50 Cem/hEnt-0
Source text: (§1) Data are mean (±SD) of at least two to four independent experiments. Table 8 identifies the phosphoramidate motif of compounds embodying the present invention, as discussed above with respect to Table 6, but with “Naph” standing for 1-naphthyl.

Cem/hEnt-1 = experiment: Cytostatic assay, CEM cells containing the hEnt1 transporter; type: cell-based
Source text: as §1

HeLa/TK^− = experiment: Cytostatic assay, HeLa/TK^− cells; type: cell-based; settings: Table 6, read-out: IC50 HeLa/TK^−
Source text: (§2) The cell lines employed were L1210/0 (a leukemia cell line), FM3A/0 (a breast cancer cell line), Cem/0 (an acute lymphoblastic leukemia cell line) and HeLa (a cervical cell line).

Cem/0 = experiment: Cytostatic assay, CEM/0 cells; type: cell-based, human; settings: for CC50: Table 1, read-out: CC50 Cem/0; for IC50: Table 6, read-out: IC50 Cem/0
Source text: as §2

L1210/0 = experiment: Cytostatic assay, L1210/0 cells; type: cell-based, murine; settings: for IC50: read-out: IC50 L1210/0
Source text: as §2

Cem/TK^− = experiment: Cytostatic assay, thymidine kinase-deficient CEM/TK^− cells; type: cell-based, human; settings: for CC50: Table 1, read-out: CC50 Cem/TK^−; for IC50: Table 6, read-out: IC50 Cem/TK^−
L1210/TK^− = experiment: Cytostatic assay, thymidine kinase-deficient L1210/TK^− cells; type: cell-based, murine; settings: for CC50: L1210, Table 1, read-out: CC50 L1210/TK^−; for IC50: Table 6, read-out: IC50 L1210/TK^−
HeLa = experiment: Cytostatic assay, HeLa cells; type: cell-based; settings: Table 6, read-out: IC50 HeLa
Source text: as §2

L1210.Hyor = experiment: Cytostatic assay, Mycoplasma hyorhinis-infected L1210 cells; settings: for % Retention: CC50 L1210 × 100 ÷ CC50 L1210/Hyor
Source text: Murine leukaemia L1210/0 and human T-lymphocyte CEM/0 cells were obtained from the American Type Culture Collection (ATCC) (Rockville, Md.). Human glioblastoma U87 cells were kindly provided by Dr. E. Menue (Institut Pasteur, Paris, France). […] S. Eriksson (currently at Uppsala University, Uppsala, Sweden) and Prof A. Karlsson (Karolinska Institute, Stockholm, Sweden). […] All cells were maintained in Dulbecco's modified Eagle's medium (DMEM) (Invitrogen, Carlsbad, Calif.) with 10% foetal bovine serum (FBS) (Biochrom AG, Berlin, Germany), 10 mM Hepes and 1 mM Sodium Pyruvate (Invitrogen). Cells were grown at 37° C. in a humidified incubator with a gas phase of 5% CO2.
Monolayer cells (U87 and U87.Hyor) were seeded in 48-well microtiter plates (Nunc™, Roskilde, Denmark) at 10,000 cells/well. After 24 hours, an equal volume of fresh medium containing the test compounds was added. On day 5, cells were trypsinized and counted in a Coulter counter (Analis, Suarlée, Belgium). Suspension cells (L1210/0, L1210/TK^−, L1210.Hyor, CEM/0, CEM/TK^−) were seeded in 96-well microtiter plates (Nunc™) at 60,000 cells/well in the presence of a given amount of the test compounds. The cells were allowed to proliferate for 48 h (L1210) or 72 hours (CEM) and were then counted in a Coulter counter.
Samples were also assayed for their % retention of activity in mycoplasma infected cells.
The L1210/0 cell cultures were infected with the mycoplasma species M. hyorhinis (cells designated: L1210.Hyor).

[1] = Mus musculus, L1210/0, Table 1, read-out: CC50 L1210/0
[2] = Mus musculus, L1210/0, Table 2, mycoplasma negative cells, read-out: CC50 L1210
[3] = Homo sapiens, CCRF-CEM, read-out: IC50 Cem/hEnt-1
[4] = read-out: IC50 Cem/hEnt-1 + NBMPR, in the presence of NBMPR
[5] = read-out: IC50 Cem/hEnt-1 + dipyridamole, in the presence of dipyridamole
[6] = Mus musculus, L1210, read-out: CC50 L1210/Hyor
[7] = Mus musculus, L1210, read-out: IC50 L1210.Hyor
[8] = read-out: IC50 L1210.Hyor, Table 7

SMILES	IC50 (Cem/hEnt-0; Homo sapiens, CCRF-CEM) [nM]	IC50 (HeLa/TK^−; Homo sapiens, HeLa) [nM]	CC50 (Cem/0; Homo sapiens, CCRF-CEM) [nM]	IC50 (Cem/0; Homo sapiens, CCRF-CEM) [nM]	CC50 (L1210/0; [1]) [nM]	CC50 (L1210/0; [2]) [nM]	IC50 (L1210/0; Mus musculus, L1210/0, Table 6) [nM]	IC50 (L1210/0; Mus musculus, L1210/0, Table 7) [nM]	IC50 (Cem/hEnt-1; [3]) [nM]	IC50 (Cem/hEnt-1; [4]) [nM]	IC50 (Cem/hEnt-1; [5]) [nM]	CC50 (Cem/TK^−; Homo sapiens, CEM-TK(-)) [nM]	IC50 (Cem/TK^−; Homo sapiens, CEM-TK(-)) [nM]	CC50 (L1210/TK^−; Mus musculus) [nM]	IC50 (L1210/TK^−; Mus musculus, L1210) [nM]	IC50 (HeLa; Homo sapiens, HeLa) [nM]	% Retention (L1210.Hyor) [%]	CC50 (L1210.Hyor; [6]) [nM]	IC50 (L1210.Hyor; [7]) [nM]	IC50(L1210.Hyor)/IC50(L1210/0) (L1210.Hyor; Table 7)	other results
O=c1[nH]c(=O)n([C@H]2C[C@H](O)[C@@H](COP(=O)(O)O)O2)cc1F [5-FdUMP, 5-fluoro-2′-deoxyuridine-5′-monophosphate, reference compound]																					IC50 (Cem/hEnt-0; Homo sapiens, CCRF-CEM, Table 8): 3600 ± 690 nM; IC50 (Cem/hEnt-1; Homo sapiens, CCRF-CEM, Table 8, read-out: IC50 Cem/hEnt-1): 50 ± 20 nM; IC50 (Cem/hEnt-1; Homo sapiens, CCRF-CEM, in the presence of NBMPR, read-out: IC50 Cem/hEnt-1 + NBMPR): 1060 nM; IC50 (Cem/hEnt-1; Homo sapiens, CCRF-CEM, in the presence of dipyridamole, read-out: IC50 Cem/hEnt-1 + dipyridamole): 1740 nM
CC(C)(NP(=O)(OC[C@H]1O[C@@H](n2cc(F)c(=O)[nH]c2=O)CC1O)Oc1ccccc1)C(=O)OCc1ccccc1 (stereo partly drawn) [CPF 393, 5-Fluoro-2′deoxyuridine-5′-O-[phenyl (benzoxy-α,α-dimethylglycine)]phosphate]	1200 ± 110	3700 ± 100	230 ± 40	230 ± 40	17 ± 3	29	17 ± 3	29 ± 1	170 ± 60	610	260	4800 ± 700	4800 ± 700	180 ± 50	180 ± 50	240 ± 70	145	20	20 ± 2	0.69	
CCOC(=O)C(C)(C)NP(=O)(OC[C@H]1O[C@@H](n2cc(F)c(=O)[nH]c2=O)CC1O)Oc1ccccc1 (stereo partly drawn) [CPF 394, 5-Fluoro-2′deoxyuridine-5′-O-[phenyl (ethoxy-α,α-dimethylglycine)]phosphate]	5800 ± 500	17000 ± 2000	650 ± 160	650 ± 160	39 ± 1	30	39 ± 1	30 ± 0.5	370 ± 140	2560	2350	22000 ± 1000	22000 ± 1000	4600	4600	590 ± 90	12	260	260 ± 10	8.7	
CC(C)(NP(=O)(OCC1OC(n2cc(F)c(=O)[nH]c2=O)CC1O)Oc1cccc2ccccc12)C(=O)OCc1ccccc1 (stereo not drawn) [CPF 395, 5-Fluoro-2′deoxyuridine-5′-O-[1-naphthyl (benzoxy-α,α-dimethylglycine)]phosphate]																	42			2.4	IC50 (Cem/hEnt-0; Table 8): 400 ± 130 nM; IC50 (HeLa/TK^−): 3100 ± 600 nM; IC50 (Cem/0): 160 ± 20 nM; CC50 (L1210/0; Table 2, mycoplasma negative cells, read-out: CC50 L1210): 19 nM; IC50 (L1210/0; Table 6): 11 ± 5 nM; IC50 (L1210/0; Table 7): 19 ± 4 nM; IC50 (Cem/hEnt-1; Table 8, read-out: IC50 Cem/hEnt-1): 50 ± 30 nM; IC50 (Cem/hEnt-1; in the presence of NBMPR, read-out: IC50 Cem/hEnt-1 + NBMPR): 280 nM; IC50 (Cem/hEnt-1; in the presence of dipyridamole, read-out: IC50 Cem/hEnt-1 + dipyridamole): 160 nM; IC50 (Cem/TK^−): 2400 ± 800 nM; IC50 (L1210/TK^−): 130 ± 40 nM; IC50 (HeLa): 78 ± 20 nM; CC50 (L1210.Hyor; read-out: CC50 L1210/Hyor, Table 2, mycoplasma positive cells): 45 nM; IC50 (L1210.Hyor; [8]): 45 ± 4 nM
CCOC(=O)C(C)(C)NP(=O)(OC[C@H]1O[C@@H](n2cc(F)c(=O)[nH]c2=O)CC1O)Oc1cccc2ccccc12 (stereo partly drawn) [CPF 396, 5-Fluoro-2′deoxyuridine-5′-O-[1-naphthyl (ethoxy-α,α-dimethylglycine)]phosphate]	1400 ± 200	3200	360 ± 50	360 ± 50	64 ± 8	56	64 ± 8	56 ± 40	210 ± 70	620	520	6900 ± 1800	6900 ± 1800	820 ± 160	820 ± 160	200 ± 120	33	170	170 ± 30	3	
CCCCCCOC(=O)C(C)NP(=O)(OCC1OC(n2cc(F)c(=O)[nH]c2=O)CC1O)Oc1cccc2ccccc12 (centres unmarked) [Nap Hex Ala]																				0.69	IC50 (HeLa/TK^−): 1800 ± 100 nM; IC50 (Cem/0): 80 ± 20 nM; IC50 (L1210/0; Table 6): 7.2 nM; IC50 (L1210/0; Table 7): 3.2 ± 0.35 nM; IC50 (Cem/TK^−): 650 ± 340 nM; IC50 (L1210/TK^−): 76 ± 15 nM; IC50 (HeLa): 39 ± 18 nM; IC50 (L1210.Hyor; [8]): 2.2 ± 0.28 nM
